Laboratory results published in a melting point compilation (Tetko et al.).

SMILES | melting point
NC(Cc1c[nH]c2ccc(O)cc12)C(=O)O (racemic) | 299 °C
COC(=O)Cc1c(Cl)[nH]c(C)c1C(=O)OC | 86 °C
OCC(CO)(CBr)CBr | 113 °C
C[C@@]12C=CC(=O)N1[C@@H](c1ccccc1)CO2 | 88 to 92 °C
CCCn1cnc2c1c(=O)n(CCCCC(C)=O)c(=O)n2C | 69 °C
COc1c(C(=O)O)csc1Br | 155 to 156 °C
O=Cc1cc(Br)cs1 | 46 to 47 °C
COc1cc2nc[nH]c(=O)c2cc1OC | 250 °C
COc1cccc(F)c1C=O | 59 °C
O=C1CN(C(=O)OCc2ccccc2)CCN1 | 120 °C
S=C=Nc1ccc(N2CCOCC2)nc1 | 121 to 122 °C
O=Cc1ccc(-c2cncnc2)cc1 | 147 to 148 °C
Brc1ccc(N2CCCC2)cc1 | 105 to 106 °C
CCOC(=O)N1c2ccccc2C=CC1OCC (centres undefined) | 64.5 °C
O=C(c1ccccc1)N(CC(=Nc1ccccc1)Nc1ccccc1)c1ccccc1 | 142 °C
Sc1nnc(-c2cc(Cl)nc(Cl)c2)o1 | 205 to 206 °C
O=C(O)C1Cc2ccccc2O1 (centres undefined) | 117 to 118 °C
C/C(=N/NC(N)=O)C1=CC2(C)CCC1C2(C)C (centres undefined) | 218 °C
Oc1cc(Cl)c(-c2ccccc2)nn1 | 235 to 236 °C
O=C1C=CC2C3C=CC(C3)C12 (centres undefined) | 56 °C
Cc1cc(C(C)(C)C)cc(C(C)(C)C)c1O | 51 °C
Cc1cccc(C(N)=O)c1C | 157 °C
CC(=O)c1sc(-c2ccccc2)cc1N | 135 to 137 °C
O=C1NC(=S)NC(=O)C1=NNc1ccc(C(=O)O)cc1 | 340 °C
FC(F)(F)c1ccc2c(c1)Nc1ccccc1S2 | 189 °C
CC(C)(C)N(NC(=O)c1ccccc1)C(=O)c1c(Cl)cccc1Cl | 198 °C

SMILES | melting point
O=C(c1ccc(Cl)cc1)c1noc(-c2ccc(Cl)cc2)c1S(=O)(=O)c1ccccc1 | 147 °C
Fc1ccc(I)cn1 | 32 °C
ClC(Br)C(Cl)Br (centres undefined) | -26 °C
Oc1nc(CCc2ccccc2)nn1-c1ccccc1 | 182 °C
CCN(CC)C(=O)COC(=O)c1ccccc1 | 72.5 °C
CC(C)OC(=O)COc1cc(Cl)c(Cl)cc1Cl | 45 °C
COC(=O)c1ccccc1C(=O)c1ccccc1 | 52 °C
C=CC[C@H](NC(=O)OCC1c2ccccc2-c2ccccc21)C(=O)O | 137 °C
Cc1ccc(C(=O)CCC(=O)O)cc1 | 129 °C
O=c1n(-c2ccccc2)c(=O)n2n1C1OC3CCC1C32 (centres undefined) | 144 °C
O=C(NCO)c1ccccc1 | 95 °C
CC(C)(C)C(=O)OCC(N)=S | 84 to 85 °C
CN(C)C(=S)NN | 149 to 153 °C
CCOC(=O)NCc1ccccc1 | 49 °C
O=C1CCCC2C3CCCN4CCCC(CN12)C34 (centres undefined) | 76 °C
N#Cc1ccoc1 | 29 to 31 °C
CCCCCCC=NO | 57.5 °C
Cc1nn(C)c(C(=O)O)c1Br | 225 to 226 °C
Cc1nc(S)sc1C | 166 to 168 °C
COP(=O)(OC)OC=C(Cl)Cl | -60 °C
Cc1nc2sc3c(c2c(=O)n1NC(=O)c1ccc(Cl)cc1)CCCC3 | 234 to 235 °C
CN(C)CCc1c[nH]c2cccc(OP(=O)(O)O)c12 | 224 °C
COc1cc(-c2nnc3sc(-c4cccnc4)nn23)cc(OC)c1OC | 175 °C
O=Cc1ccc(-c2nccs2)cc1 | 90 to 91 °C
O=[N+]([O-])c1cccc(C=NNc2ccccc2)c1 | 123 °C
CC(=O)OC1CCC2(C)C(=CCC3C4CCC(=O)C4(C)CCC32)C1 (centres undefined) | 147 °C

SMILES | melting point
O=[N+]([O-])c1ccc(-c2nn3c(C(F)(F)F)nnc3s2)cc1 | 213 °C
CC(C)[Si](C(C)C)(C(C)C)n1ccc2c(Br)cccc21 | 62 to 65 °C
CC(=O)Nc1c(C(=O)Cc2c(C)cc(C)cc2C)oc2ccccc12 | 161 to 162 °C
CCCCc1c(C)nc(NC(=O)NS(=O)(=O)c2cccs2)nc1Cl | 188 to 189 °C
Cc1nc2ccccc2n1CCc1nnc(S)n1N=Cc1ccccc1Cl | 250 °C
CC(C)(C)CC(C)(C)Nc1nc(N2CCOCC2)nc(N2CCOCC2)n1 | 159 °C
O=C(CNc1cccc([N+](=O)[O-])c1)c1ccccc1 | 169 °C
Fc1cc(I)ccn1 | 58 °C
c1ccc(/N=N/c2ccccc2NNc2ccccc2)cc1 | 99 °C
O=Cc1cccc(-c2cncnc2)c1 | 148 to 149 °C
Cc1cc2nc3c(=O)[nH]c(=O)nc-3n(C)c2cc1C | 320 °C
COc1ccc(-c2noc(CCl)n2)cc1 | 52 to 53 °C
CC(C(O)c1ccc(O)cc1)N1CCC(Cc2ccccc2)CC1 (centres undefined) | 114 °C
CC1CCC2C(C)(C)C3CC12CCC3(C)O (centres undefined) | 86 °C
CC(=O)NCC1(c2ccccc2)CCN(CCCC(=O)c2ccc(F)cc2)CC1 | 98.5 °C
Nn1nnc2ccccc21 | 81 to 85 °C
CC1CCCC1C (centres undefined) | -54 °C
Oc1ccccc1CCc1ccccc1 | 85 °C
O=C(c1ccc(OCc2ccccc2)cc1)c1cn(C(=O)c2ccc(OCc3ccccc3)cc2)c2ccccc12 | 181 °C
CC(=O)Nc1ccc(C#Cc2ccc(NC(C)=O)cc2)cc1 | 281 °C
CCOC(=O)COC(=O)c1cc(Oc2ccc(C(F)(F)F)cc2Cl)ccc1[N+](=O)[O-] | 65 °C
Brc1cc(Br)c(Oc2c(Br)cc(Br)c(Br)c2Br)cc1Br | 171 to 173 °C
NN=C(c1ccccc1)c1ccccc1 | 96.5 °C
Oc1ccc2cccc(Cl)c2c1 | 101 °C
O=S(=O)(Cl)Cc1ccccc1F | 55 to 56 °C
O=C(/C=C/c1ccc(-c2ccc(Cl)cc2)o1)c1ccco1 | 148 °C

SMILES | melting point
NCc1ccc(N2CCOCC2)cc1 | 50 °C
N#Cc1cnn2c(C(F)(F)F)cc(C(F)(F)F)nc12 | 75 to 77 °C
C=C1C(C)C2C(Cc3ccccc3)NC(=O)C23OC(=O)C=CC(O)CCCC(C)CC=CC3C1O (centres undefined) | 218 to 223 °C
CCCCCCCCCCCCCCCCCCCCCCCCCCCCCCCCCCC | 75 °C
COc1ccc([N+](=O)[O-])cn1 | 108 °C
Cn1ncc(C(N)=O)c1N | 231 to 232 °C
Cn1nc(-c2ccco2)cc1CO | 83 to 85 °C
Oc1c(Cl)c(O)c(Cl)c(O)c1Cl | 136 °C
Cc1c(Br)sc2ccc(Cl)cc12 | 106 °C
C=Cc1ccc(C)cc1C | -64 °C
O=C(Cl)c1ccc2snnc2c1 | 93 to 96 °C
O=C(O)[C@H](Cc1ccccc1)NC(=O)C(F)(F)F | 126 to 127 °C
COC1OC(C(=O)O)C(OC2OC(C(=O)O)C(OC)C(O)C2O)C(O)C1O (centres undefined) | 300 °C
Oc1cc(Br)cc(Br)c1 | 81 °C
O=[N+]([O-])C(Br)C(Br)c1cccc(C(Br)C(Br)[N+](=O)[O-])c1 (centres undefined) | 147 °C
COC(=O)CC(C)CCC1C(C)(O)CCC2C(C)(C)CCCC21C (centres undefined) | 68.3 to 71.3 °C
C/C=C/C(=O)N1C(=O)OC[C@@H]1C(C)C | 56 °C
CC(=O)Nc1ccc(S(=O)(=O)Cl)cc1 | 149 °C
O=[N+]([O-])c1ccc(N=Nc2ccccc2)cc1 | 133 °C
Nc1cccc2cc3ccccc3nc12 | 108 °C
O=Cc1cc(Br)cc2c1OCC2 | 94 to 95 °C
CC(C)(SC(=O)N1CCCCC1)c1ccccc1 | 39.1 °C
N#CCCN1CCN(CCC#N)CC1 | 65 °C
CCCCCCCCOC(=O)CCCCCCC | -18.1 °C
O=C1CCC(=O)CC1 | 78 °C
CN1COCc2c1ccc1cc3ccc(N)c(CO)c3nc21 | 235 °C

SMILES | melting point
CC12CCC(C1(C)C)C(CCCc1ccccc1)(C1(CCCc3ccccc3)C(=O)C3(C)CCC1C3(C)C)C2=O (centres undefined) | 250 °C
C1=CC2C3C=CC(C3)C2C1 (centres undefined) | 33.6 °C
COC(=O)C1(C(=O)OC)Cc2ccccc2C(=O)O1 | 113 °C
CCOc1ccc(N)c(N)c1 | 71.5 °C
N#Cc1c(O)ccc([N+](=O)[O-])c1O | 239 to 240 °C
CN(C)C(=O)C(CCN1CCC(O)(c2ccc(Cl)cc2)CC1)(c1ccccc1)c1ccccc1 | 228 °C
NC(=O)C=CC(F)(F)F | 147 to 150 °C
N#Cc1c(-c2ccccc2)nn(-c2ccccc2)c1N | 161 °C
O=[N+]([O-])c1cc(CCBr)c([N+](=O)[O-])cc1CCBr | 123 °C
[O-][N+](=Nc1ccccc1)c1ccc(N=Nc2ccccc2)cc1 | 130 to 131 °C
CC(C)(C)OC(=O)N[C@@H](CCC(=O)OCc1ccccc1)C(=O)O | 65 to 68 °C
CC1CCC2(O)C(C)(C)C3CCC2(C)C1C3 (centres undefined) | 56 °C
Cn1c(=O)c(C(N)=S)cn(-c2ccccc2)c1=O | 229 to 232 °C
NNC(=S)Nc1ccc(Cl)cc1Cl | 169 °C
N#Cc1ccc(F)c(F)c1 | 50 °C
O=S(=O)(Cl)c1ccc2nsnc2c1 | 69 to 74 °C
C[C@]12CCC(=O)C[C@@H]1CC[C@@H]1[C@@H]2CC[C@]2(C)C(=O)C=C[C@@H]12 | 172 to 173 °C
CCSC(SCC)C(O)C(O)C(O)CO (centres undefined) | 127 °C
COc1ccc(Br)cc1C | 68 °C
Cc1cc(C)c2c(c1C)CC2 | 20 to 28 °C
C#CC1(O)CCC2(C)C(C1)CC1(OCCO1)C1C3CCC(=O)C3(C)CCC12 (centres undefined) | 308 °C
Cc1nn(-c2ccccc2)c(C)c1C=O | 125 to 128 °C
S=C(SSC(=S)N1CCCCC1)N1CCCCC1 | 138 °C
CC(F)(Cl)CCl (centres undefined) | -91.7 °C
Cc1ccnc(NS(=O)(=O)c2ccc(N)cc2)n1 | 234 °C
